Laboratory results from PubChem BioAssay (NCI).
“And” between values parts separate entries of the source, which are not always exact repeats. Identical values can stand only once.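 Test compounds were applied to cells in 96-well plates for 48 hours at 5 doses. Abbreviation: GI50, concentration required for 50% inhibition of growth. TGI: concentration producing complete growth inhibition.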

How the values were obtained:
Assay in all cases: inhibition of tumour cell growth, NCI panel, 48 h
MOLT-4 leukemia = system: MOLT-4 leukemia
SK-MEL-5 melanoma = system: SK-MEL-5 melanoma
KM12 colon = system: KM12 colon
ACHN renal = system: ACHN renal
SF-539 CNS = system: SF-539 CNS
HOP-62 NSCLC = system: HOP-62 NSCLC
T-47D breast = system: T-47D breast
PC-3 prostate = system: PC-3 prostate
MDA-MB-231 breast = system: MDA-MB-231 breast
A549 NSCLC = system: A549 NSCLC

Compound	GI50 (MOLT-4 leukemia)	TGI (MOLT-4 leukemia)	GI50 (SK-MEL-5 melanoma)	TGI (SK-MEL-5 melanoma)	GI50 (KM12 colon)	TGI (KM12 colon)	GI50 (ACHN renal)	TGI (ACHN renal)	GI50 (SF-539 CNS)	TGI (SF-539 CNS)	GI50 (HOP-62 NSCLC)	TGI (HOP-62 NSCLC)	GI50 (T-47D breast)	TGI (T-47D breast)	GI50 (PC-3 prostate)	TGI (PC-3 prostate)	GI50 (MDA-MB-231 breast)	TGI (MDA-MB-231 breast)	GI50 (A549 NSCLC)	TGI (A549 NSCLC)
C[C@]12CC[C@H]3[C@@H](CCC4=CC(=O)CC[C@@H]43)[C@@H]1CC[C@@H]2OC(=O)CCc1ccccc1	17.5 µM	49.6 µM	13 µM	26 µM	19.8 µM	43 µM	18.9 µM	45.1 µM	16.3 µM	30.5 µM	20.5 µM	39.6 µM	21.8 µM	66.6 µM	24.4 µM	> 84.2 µM	18.9 µM	42.2 µM	25.1 µM	> 73.7 µM
Cc1ccc(NC(=O)/C=C/c2ccccc2)c(C(N)=O)c1	3.34 µM	> 74.1 µM	1.94 µM	> 41.5 µM	2.44 µM	35.5 µM	11 µM	> 96.6 µM	2.07 µM	6.75 µM	11.1 µM	> 100 µM	5.11 µM	> 74.4 µM	4.07 µM	> 100 µM	5.37 µM	> 95.7 µM	5.28 µM	> 100 µM
CN(C)c1ccc(/C=C\c2cccc[n+]2C)cc1	38.4 µM	> 100 µM	2.99 µM	11.6 µM	0.821 µM	13.4 µM	43 µM	> 100 µM	12.3 µM	> 100 µM	5.83 µM	90.7 µM	4.37 µM	65.5 µM	3.04 µM	> 100 µM	13.7 µM	93.2 µM	1.73 µM	> 100 µM
C[C@]12CCC3[C@@H](CC[C@@H]4c5nonc5CC[C@]34C)C1CCC(=O)N2 (some centres undefined)	> 59.7 µM	> 100 µM	–	> 100 µM	–	> 100 µM	–	> 100 µM	–	> 100 µM	–	> 100 µM	> 100 µM	> 100 µM	68.3 µM	> 100 µM	> 100 µM	> 100 µM	–	> 100 µM
CC(CN1CCN(CCOCCO)CC1)CN1c2ccccc2Sc2ccc(Cl)cc21 (centres undefined)	2.49 µM	6.54 µM	1.69 µM	3.07 µM	2.78 µM	8.21 µM	3.46 µM	12.6 µM	2.52 µM	6.94 µM	3.52 µM	13.4 µM	6.22 µM	22.6 µM	2.6 µM	10.6 µM	1.86 µM	4.79 µM	3.05 µM	12.4 µM
CC(C)(C)c1n[nH]c(=S)n(/N=C/c2ccc(F)c(Oc3ccccc3)c2)c1=O	39.8 µM	> 100 µM	19.9 µM	42.4 µM	35.9 µM	> 100 µM	33.8 µM	> 100 µM	43.7 µM	> 100 µM	90.1 µM	> 100 µM	55.7 µM	> 100 µM	38.6 µM	> 100 µM	34.6 µM	> 100 µM	33.9 µM	> 100 µM
COc1ccc(-c2cc(-c3ccccc3)nc(SCCCC(=O)NO)n2)cc1	0.758 µM	10.9 µM	1.26 µM	2.75 µM	1.72 µM	5.29 µM	0.356 µM	1.46 µM	1.47 µM	4.32 µM	0.994 µM	8.88 µM	0.804 µM	15.1 µM	1.61 µM	8.39 µM	1.57 µM	6.1 µM	1.74 µM	8.45 µM
Cc1ccc(C(=O)Nc2cccc(C(F)(F)F)c2)cc1Nc1nc(-c2cccnc2)nc2c1cnn2C	1.78 µM and 0.886 µM	11 µM and > 10 µM	1.74 µM and 1.24 µM	4.06 µM and 2.96 µM	2.62 µM and 0.686 µM	17.2 µM and 8.28 µM	2.13 µM and 1.08 µM	11.1 µM and 7.4 µM	2.59 µM and 1.22 µM	13.3 µM and 3.28 µM	2.62 µM and 1.04 µM	15.2 µM and > 10 µM	3.44 µM and 1.86 µM	16.3 µM and 8.72 µM	3.05 µM and 2.65 µM	11.1 µM and > 10 µM	0.769 µM and 0.348 µM	3.21 µM and 3.95 µM	3.2 µM and 2.11 µM	16.1 µM and > 10 µM
O=C1C=C(Br)c2c(-c3ccccc3)oc3cccc1c23	–	> 67.8 µM	–	> 100 µM	–	> 100 µM	–	> 100 µM	–	> 94.2 µM	–	> 100 µM	–	> 100 µM	–	> 100 µM	–	78.2 µM	–	> 100 µM
N/C(=N\N=C\c1ccc(-c2ccccc2)cc1)N[N+](=O)[O-]	5.76 µM	> 100 µM	3.52 µM	> 100 µM	1.27 µM	> 100 µM	> 100 µM	> 100 µM	2.12 µM	> 100 µM	2.64 µM	> 100 µM	4.8 µM	> 100 µM	3.81 µM	> 100 µM	> 68 µM	> 100 µM	2.75 µM	> 100 µM
COc1cccc(C=Nc2cc(C)ccn2)c1O.COc1cccc(C=Nc2cc(C)ccn2)c1O.[Cu]	10.9 µM	73.4 µM	7.39 µM	20.9 µM	18.5 µM	52.5 µM	22.3 µM	43.8 µM	17 µM	42.9 µM	22.2 µM	63.7 µM	12 µM	33.1 µM	17.8 µM	42.9 µM	23.2 µM	50.4 µM	27.8 µM	90.1 µM
COC(=O)C(Cc1ccccc1)NC(=O)NC(=O)NC(=O)CI (centres undefined)	2 µM	5.21 µM	15.5 µM	29 µM	15.8 µM	32.6 µM	1.85 µM	3.62 µM	11.8 µM	24.9 µM	18 µM	33.7 µM	2.71 µM	8.5 µM	17.3 µM	33.1 µM	5.2 µM	20.1 µM	20.2 µM	38.9 µM
CCCn1c(C)nc2c1C(=O)c1ccccc1C2=O	19 µM	> 100 µM	13.4 µM	27.2 µM	32.2 µM	> 100 µM	37.7 µM	> 100 µM	27.1 µM	> 100 µM	41.3 µM	> 100 µM	35.1 µM	> 100 µM	11 µM	> 100 µM	34.1 µM	> 100 µM	28.5 µM	> 100 µM
Clc1cc(Cl)c(OCC#CI)cc1Cl	2.05 µM	6.11 µM	5.93 µM	18.9 µM	13.9 µM	27.5 µM	3.01 µM	12 µM	2.94 µM	12.8 µM	4.08 µM	14.2 µM	1.22 µM	3.01 µM	12.7 µM	27.9 µM	13.5 µM	28 µM	16.8 µM	31.4 µM
COC(=O)Cn1c2c(c3c(O)cccc31)C(=O)c1ccccc1-2	> 100 µM	> 100 µM	> 100 µM	> 100 µM	> 100 µM	> 100 µM	> 100 µM	> 100 µM	> 100 µM	> 100 µM	> 100 µM	> 100 µM	> 100 µM	> 100 µM	> 100 µM	> 100 µM	40.4 µM	> 100 µM	> 100 µM	> 100 µM
O=C(N/N=C/c1ccc2c(c1)CCC2)c1ccccc1O	–	> 100 µM	–	> 100 µM	–	50.7 µM	–	34.8 µM	–	65.8 µM	–	38 µM	–	> 100 µM	–	53.4 µM	–	58.6 µM	–	57.5 µM
Nc1ncnc2[nH]ncc12	2.64 µM	> 100 µM	4.18 µM	24.5 µM	1.26 µM	18.3 µM	0.535 µM	> 100 µM	4.17 µM	> 100 µM	2.23 µM	> 100 µM	0.265 µM	4.52 µM	0.526 µM	> 55.7 µM	0.577 µM	> 100 µM	1.72 µM	> 66.8 µM
O=C(/C(=C/c1ccccc1)CN1CCCCC1)c1ccccc1	0.403 µM	31.8 µM	1.43 µM	2.94 µM	2.09 µM	6.88 µM	0.518 µM	1.44 µM	2.8 µM	10.1 µM	2.88 µM	9.93 µM	0.801 µM	3.2 µM	2.2 µM	9.26 µM	1.96 µM	5.75 µM	1.84 µM	3.92 µM
CN(C)c1ccc2c(c1)Sc1cc(N(C)C)ccc1N2C(=O)c1ccccc1	38.1 µM	> 100 µM	28.1 µM	> 100 µM	31.6 µM	> 100 µM	32.4 µM	> 100 µM	38.2 µM	> 100 µM	92.4 µM	> 100 µM	35.2 µM	> 100 µM	12.9 µM	> 100 µM	64.2 µM	> 100 µM	32.5 µM	> 100 µM
O=S(=O)(NCCNC/C=C/c1ccc(Br)cc1)c1cccc2cnccc12	> 20.4 µM and 7.23 µM	> 45 µM and 27.7 µM	6.07 µM and 13.3 µM	19.3 µM and 26.5 µM	9.78 µM and 13.7 µM	23.3 µM and 28.8 µM	10.3 µM and 12.5 µM	22.8 µM and 26.2 µM	7.74 µM and 9.35 µM	21.9 µM and 22.6 µM	7.49 µM and 8.6 µM	21.7 µM and 22.2 µM	3.93 µM and 6.45 µM	18.4 µM and 26 µM	7.18 µM and 11.2 µM	21.2 µM and 24.5 µM	8.1 µM and 14.2 µM	21.7 µM and 29.7 µM	11.3 µM and 13.6 µM	24.9 µM and 27.4 µM
